# Laboratory results taken from patent publication US20260151379A1, “SALT TYPE AND CRYSTAL FORM OF COMPLEMENT FACTOR B INHIBITOR, AND PREPARATION METHOD THEREFOR AND APPLICATION THEREOF” (SHANGHAI MEIYUE BIOTECH DEVELOPMENT CO., LTD., priority 2022, published 2026).
# Like-named read-outs stand apart in the source and are kept apart here.
# Legend:
# [1] = tested on: cynomolgus monkey serum AP activity; assay: PD of single intragastric administration to cynomolgus monkeys (serum complement AP activity, wieslab assay); format: in vivo; conditions: intragastric 3 mpk and 30 mpk
# Experimental: (§1) Cynomolgus monkeys were used. Each group consisted of 3 cynomolgus monkeys, and they were given the control compound at 3 mpk, the control compound at 30 mpk, the compound of formula I at 3 mpk, and the compound of formula I at 30 mpk by intragastric administration. Blood was collected at different time points and used for drug concentration analysis and complement activity detection. The compound concentration in plasma was determined by LC-MS/MS. The complement activity in serum was determined using a wieslab assay (Svar Life Science AB, COMPL AP330 RUO) kit, Normal Human Serum (Complement Technology, NHS).
# [2] = molecular target: T1, complement factor B in human serum (Homo sapiens, UniProt P00751); assay: Complement hemolytic activity assay (rabbit erythrocytes, normal human serum); format: cell-based; conditions: versus control compound
# T1 construct: from tissue; host or cells: normal human serum (NHS)
# T1 sequence (P00751 26-764): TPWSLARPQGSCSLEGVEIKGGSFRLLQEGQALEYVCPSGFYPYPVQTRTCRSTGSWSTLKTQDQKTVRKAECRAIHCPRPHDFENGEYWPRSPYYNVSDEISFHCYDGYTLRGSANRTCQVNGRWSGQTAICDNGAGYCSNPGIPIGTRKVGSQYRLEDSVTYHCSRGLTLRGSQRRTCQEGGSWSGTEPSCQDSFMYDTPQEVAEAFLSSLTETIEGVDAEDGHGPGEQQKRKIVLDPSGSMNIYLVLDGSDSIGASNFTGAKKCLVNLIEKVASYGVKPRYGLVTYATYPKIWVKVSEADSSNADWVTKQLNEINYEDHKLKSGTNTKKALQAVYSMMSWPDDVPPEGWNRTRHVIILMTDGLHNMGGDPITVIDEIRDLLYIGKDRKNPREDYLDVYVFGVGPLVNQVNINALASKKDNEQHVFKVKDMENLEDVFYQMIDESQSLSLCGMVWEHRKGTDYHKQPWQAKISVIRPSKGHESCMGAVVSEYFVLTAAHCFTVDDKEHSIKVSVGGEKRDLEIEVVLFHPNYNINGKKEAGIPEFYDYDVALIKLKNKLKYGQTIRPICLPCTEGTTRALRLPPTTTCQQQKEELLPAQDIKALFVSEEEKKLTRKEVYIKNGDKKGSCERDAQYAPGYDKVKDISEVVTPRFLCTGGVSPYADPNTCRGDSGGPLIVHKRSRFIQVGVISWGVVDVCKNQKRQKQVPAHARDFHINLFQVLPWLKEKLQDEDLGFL
# Experimental: Prior to the experiment, the optimal concentration of normal human serum (NHS) required to achieve 100% lysis of rabbit erythrocytes (REs) was obtained by titration testing. […] A GVB0 buffer containing 10 mM Mg-EGTA and containing NHS and RE but no test compound was used as a positive control group (100% lysis). A GVB0 buffer containing 10 mM Mg-EGTA and containing inactivated NHS (heated at 56° C. for 30 min or at 65° C. for 5 min) and RE but no test compound was used as a negative control group (0% lysis). […] Absorbance at 415 nm (A415) was measured using a microplate reader (Molecular Devices, SpectraMax i3X). IC50 values were calculated from percent hemolysis as a function of test compound concentration by non-linear regression.
# [3] = Liver microsomal stability experiment (rat); format: in vitro ADME; conditions: rat liver microsomes
# Experimental: (§2) A 0.1 M solution of dipotassium phosphate in distilled water (containing 1 mM ethylenediaminetetraacetic acid) was taken. Then the pH was adjusted to 7.4 with a 0.1 M solution of potassium dihydrogen phosphate in distilled water (containing 1 mM ethylenediaminetetraacetic acid).
# (§3) • Rat: SD Rat Liver Microsomes, Cat. No.: LM-DS-02M, RILD Research Institute for Liver Diseases (Shanghai) Co. Ltd. • Monkey: Cynomolgus Monkey Liver Microsomes, Cat. No.: LM-SXH-02M, RILD Research Institute for Liver Diseases (Shanghai) Co. Ltd. • Human: Pooled Human Liver Microsomes (Mongolian), Cat. No.: LM-R-02M, RILD Research Institute for Liver Diseases (Shanghai) Co. Ltd.
# (§4) A 10 mM solution of each of the control compound and test compounds was prepared in DMSO. Then 10 μL of the solution was added to 190 μL of acetonitrile to form a 0.5 mM stock solution. 1.5 μL of the 0.5 mM stock solution was measured out, and […] of 20 mg/mL liver microsomes and 479.75 μL of the buffer were added. (The actual preparation amount can be adjusted according to use).
# (§5) 10 mg/mL of reduced coenzyme II (NADPH) was prepared in the buffer. A 96-well plate was placed on ice. Wells corresponding to different time points (0, 10, 30, 60 and 90 min, Non-NADPH) were set for each compound. […] The mixture was analyzed on an AB SCIEX ExionLC-Triple Quad 5500 high-performance liquid chromatograph-mass spectrometer. […]
# [4] = Liver microsomal stability experiment (human); format: in vitro ADME
# Experimental: as §2, §3, §4, §5
# [5] = PK of single intragastric administration to cynomolgus monkeys (plasma concentration); format: in vivo; conditions: intragastric 3 mpk and 30 mpk, same dose as control compound
# Experimental: as §1
# [6] = Solubility tests in water, SGF, FaSSIF, FeSSIF at 37° C. (Example 5); format: physicochemical; conditions: for solubility at 1 h / solubility at 24 h: 37 °C, thermodynamic from solid; for solubility at 1 h: read-out: Solubility (mg/mL) (1 h); for solubility at 24 h: read-out: Solubility (mg/mL) (24 h)
# Experimental: Experimental procedures: 30 mg (in water) or 15 mg of a sample was weighed out and added to a 4 mL vial; 3 mL of a medium to be tested (water, SGF, FaSSIF, or FeSSIF) was added; the mixture was continuously stirred at 37° C.; 0.5 mL of the sample was separately collected at 1 h and 24 h; centrifugation was performed at 12000 rpm for 10 min; the supernatant was diluted with 50% aqueous acetonitrile solution to an appropriate multiple; and the concentration of the supernatant was determined.
# Control and linearity: 10 mg of the compound of formula I was weighed out and added to a 50 mL volumetric flask, 50% aqueous acetonitrile solution was added for dissolution, and the mixture was diluted to volume. Two parts were prepared in parallel. The control of the compound of formula I was taken and diluted with 50% aqueous acetonitrile solution to 100 μg/mL, 50 μg/mL, and 10 μg/mL, 5 μL of the sample was injected, and a standard curve was plotted.
# [7] = SGF, simulated gastric fluid, SGF
smiles,measurement,setting,value
COc1cc(C)c2[nH]ccc2c1CN1CC[C@H](OCC2CC2)C[C@H]1c1ccc(C(=O)O)cc1 [Compound of formula I],"Inhibition of cynomolgus monkey serum AP activity (in words, FIG. 22)",[1],can effectively inhibit the cynomolgus monkey serum AP activity
same,Inhibitory activity against complement factor B in human serum (in words),[2],significantly better inhibitory activity against complement factor B in human serum than that of the control compound
same,MMS (rat) Remaining (T = 90 min),[3],89.14%
same,MMS (human) Remaining (T = 90 min),"[4]; human liver microsomes, 90 min",91.04%
same,Liver microsomal stability (in words),"[4]; rat, monkey and human liver microsomes",significant liver microsomal stability
same,"Mean plasma concentration (in words, FIG. 21)",[5],significantly higher mean plasma concentration than that of the control compound
same,Final pH,[6]; FaSSIF,6.44
same,Solubility (mg/mL) (1 h),[6]; FaSSIF,0.22 mg/mL
same,Solubility (mg/mL) (24 h),[6]; FaSSIF,0.19 mg/mL
same,solubility at 1 h,"[6]; FeSSIF, fessif, FeSSIF",0.37 mg/mL
same,solubility at 24 h,"[6]; FeSSIF, fessif, FeSSIF",0.35 mg/mL
same,Final pH,[6]; FessIF,5.03
same,Final pH,[6]; SGF,1.74
same,solubility at 1 h,[6]; [7],5.51 mg/mL
same,solubility at 24 h,[6]; [7],5.48 mg/mL
same,Final pH,[6]; Water,8.73
same,Solubility (mg/mL) (1 h),[6]; Water,0.37 mg/mL
same,Solubility (mg/mL) (24 h),[6]; Water,0.31 mg/mL
